# From patent publication US6254853A, “Water soluble pro-drugs of propofol” (Vyrex Corporation, priority 1998, dated 2001)
# “Also recorded” adds a separate entry of the source.
# Legend:
# [1] = literature; cited from earlier work
# spinal cord = conditions: literature; cited from earlier work
# colorectal cancer tumors = conditions: mice; co-administered with 5-fluorouracil or doxorubicin; Chinery et al. 1997; cited from earlier work
# [2] = test system: low density lipoprotein (LDL); assay: Effect of propofol esters on hydrogen peroxide/horseradish peroxidase-promoted oxidation of LDL (conjugated dienes); assay type: biochemical, human; conditions: 5 μM; 100 μg/ml LDL, 1 U horseradish peroxidase, 50 μM H2O2
# Description: (§1) The following experiment is based on the use of low density lipoprotein (LDL) as an oxidizable substrate. LDL is one of the plasma lipoproteins whose oxidation is thought to contribute to the pathogenesis of atherosclerosis. The copper-promoted, the hydrogen peroxide-/horseradish peroxidase-promoted and the myeloperoxidase-promoted oxidation of LDL are models for the free radical-induced oxidation of LDL that occurs in vivo.
# (§2) LDL was isolated from heparinized plasma of normal human donors by ultracentrifugation. Most of the experiments described in this study were performed immediately after isolation. Examples and further details of the experimental procedures may be found in N. Santanam et al. J. Clin Invest. 95(6):2594 (1995) and FEBS Leters, 414:549-551 (1997).
# (§3) The formation of conjugated dienes was measured in a spectrophotometer (model DB-3500; SLM-AMINCO, Urbana, Ill.) equipped with a 12 position sample changer. Samples and references were measured continuously for periods of up to several hours. Typically, 100 μg/ml of LDL was incubated in PBS with 1 U horseradish peroxidase (type X, 260 U/mg) in the presence of 50 μM H2 O2. For copper-mediated oxidation, 100 μg/ml LDL was incubated with 5 μM copper sulfate solution.
# [3] = test system: low density lipoprotein (LDL); assay: Effect of propofol esters on copper-promoted oxidation of LDL (conjugated dienes); assay type: biochemical, human; conditions: 5 μM; 100 μg/ml LDL, 5 μM copper sulfate
# Description: as §1, §2, §3
# Water solubility = conditions: in words
# [4] = In vitro hydrolysis of propofol esters to propofol in human saliva; assay type: in vitro ADME; conditions: room temperature, approximate
# Experimental: (§4) In vitro hydrolysis of propofol esters in various media
# (§5) General procedure: Propofol ester was dissolved in the test medium at room temperature, and samples were removed periodically for analysis. The samples were extracted with hexane, the extracts were evaporated to dryness, and the residues were taken up in methanol. Analysis was by HPLC using methanol solvent through an ODS column and UV detection at 260 nm.
# (§6) The approximate half-life for the hydrolysis of propofol hemisuccinate to propofol in various media were as follows: […]
# [5] = In vitro hydrolysis of propofol esters to propofol in human whole blood; assay type: in vitro ADME; conditions: room temperature, approximate
# Experimental: as §4, §5, §6
# [6] = In vitro hydrolysis of propofol esters to propofol in water (PBS buffer pH 7.4); assay type: in vitro ADME; conditions: room temperature, approximate
# Experimental: as §4, §5, §6
# [7] = test system: Human low density lipoprotein (huLDL); assay: Effect of propofol esters on myeloperoxidase-mediated oxidation of LDL (conjugated dienes); assay type: biochemical; conditions: concentration not given
# Description: as §1, §2
# Human low density lipoprotein (huLDL) in the presence of myeloperoxidase undergoes oxidative modification. The oxidative damage may be measured by spectrophotometric detection of the resulting conjugated dienes (N. Santanam & S. Parthasarathy, J. Clin. Invest, 95(6):2594 (1995)).
# [8] = In vitro hydrolysis of propofol esters to propofol in rat whole blood; assay type: in vitro ADME; conditions: room temperature, approximate
# Experimental: as §4, §5, §6
# [9] = In vitro hydrolysis of propofol esters to propofol in albumin; assay type: in vitro ADME; conditions: room temperature, approximate
# Experimental: as §4, §5, §6
# [10] = In vivo hydrolysis of propofol hemisuccinate after gavage (blood levels of propofol; observation of the animals); set-up: species or system male Sprague-Dawley rats; conditions: rat, two days following dosing
# Experimental: At a dosage of 400 mg of propofol hemisuccinate per kg body weight, the blood level of propofol at 4 hrs was about 1 μg/ml.
# [11] = In vitro hydrolysis of propofol esters to propofol in human plasma; assay type: in vitro ADME; conditions: room temperature, approximate
# Experimental: as §4, §5, §6
# [12] = in words; background knowledge; cited from earlier work
# lipid peroxidation = conditions: Misacchia et al. 1991; cited from earlier work
compound,measurement,setting,value
Cc1c(C)c2c(c(C)c1O)CCC(C)(CCCC(C)CCCC(C)CCCC(C)C)O2 (stereo not drawn) [Alpha-tocopherol],uptake into the central nervous system,[1],very slowly
same,effect on chronic neurological recovery,spinal cord,enhance chronic neurological recovery
same,effect on post-traumatic spinal cord ischemia,spinal cord,decrease post-traumatic spinal cord ischemia
same,growth of colorectal cancer tumors,colorectal cancer tumors,inhibited the growth
CC(C)c1cccc(C(C)C)c1OP(=O)(O)Oc1c(C(C)C)cccc1C(C)C [di(propofol) phosphoric acid ester],effect on oxidation of LDL in the presence of horseradish peroxidase/hydrogen peroxide,[2],not significantly affected
same,effect on copper-promoted oxidation of LDL,[3],not significantly affected
CC(C)c1cccc(C(C)C)c1OP(=O)(O)O [mono(propofol) phosphate],effect on oxidation of LDL in the presence of horseradish peroxidase/hydrogen peroxide,[2],not significantly affected
same,solubility in water,Water solubility,most soluble
same,Half-Life to Hydrolysis,[4],about four
same,effect on copper-promoted oxidation of LDL,[3],not significantly affected
"CC(C)c1cccc(C(C)C)c1OC(=O)CCC(=O)O [propofol hemisuccinate, 2,6-diisopropylphenyl hydrogen succinate]",effect on oxidation of LDL in the presence of horseradish peroxidase/hydrogen peroxide,[2],slightly inhibited
same,half-life,[5],~48 h
same,half-life,[6],~336 h
same,effect on oxidation of LDL in the presence of myeloperoxidase,[7],partly inhibited; also recorded: significantly inhibited
same,half-life,[8],~2 h
same,solubility in water,Water solubility,most soluble
same,half-life,[4],~96 h
same,half-life,[9],~144 h
same,effect on copper-promoted oxidation of LDL,[3],not significantly affected
same,condition of the animals through the two day observation period,[10],remained healthy and active
same,half-life,[11],~72 h
"CC(C)c1cccc(C(C)C)c1O [propofol, 2,6-diisopropylphenol]",effect on oxidation of LDL in the presence of horseradish peroxidase/hydrogen peroxide,[2],almost totally inhibited
same,water solubility of propofol,[12],almost completely insoluble in water; also recorded: very low water solubility
same,inhibition of lipid peroxidation,lipid peroxidation,inhibit lipid peroxidation
same,effect on copper-promoted oxidation of LDL,[3],almost totally inhibited
"S=C(S)N1CCCC1 [pyrrolidine dithiocarbamate (PDTC), pyrrolidine dithiocarbamate]",growth of colorectal cancer tumors,colorectal cancer tumors,inhibited the growth
